Data on two molecules can be found in the NIST ThermoML archive (doi:10.1016/j.fluid.2011.11.016).

Numbers after ± are expanded uncertainties.

The data set can be described thus: xn = mol fraction of the nth substance listed. To be noted: 298.15 K, 101.3 kPa, Liquid, Vibrating tube method.

In the case of `C1CCCCC1` [cyclohexane] + CCCCCCC, the mass density stood at 773.88 ± 0.13 kg/m3 (x2 = 0); 766.95 ± 0.14 kg/m3 (x2 = 0.0503); 760.53 ± 0.14 kg/m3 (x2 = 0.0991); 748.16 ± 0.15 kg/m3 (x2 = 0.2021); 735.69 ± 0.15 kg/m3 (x2 = 0.3118); 726.61 ± 0.15 kg/m3 (x2 = 0.3926). In addition, the mass density (x2 = 0.5039) was determined as 717.21 ± 0.16 kg/m3; the mass density (x2 = 0.666) came to 703.79 ± 0.17 kg/m3; the mass density (x2 = 0.7062) is 700.61 ± 0.17 kg/m3; the mass density (x2 = 0.8061) turned out to be 692.71 ± 0.17 kg/m3; the mass density (x2 = 0.9061) came out at 685.62 ± 0.18 kg/m3; the mass density (x2 = 0.9539) is on record as 682.6 ± 0.18 kg/m3.
Turning to `CCCCCCC` [heptane] + C1CCCCC1, the mass density (x1 = 1) is recorded as 679.57 ± 0.18 kg/m3.

The term mass density denotes the mass of a sample divided by its volume.
